Where “and” joins values, the source holds several entries; their conditions need not be identical. Equal entries are not always repeated. Toxic doses and inconclusive results are not listed.

Our source for the T/C values is PubChem BioAssay AID200 (DTP/NCI, 2004).

In this assay the test system is B6C3F1 mice, B16 melanoma ip, median survival T/C. The experiment in a line: NCI In Vivo Anticancer Drug Screen. Data for tumor model B16 Melanoma (intraperitoneal) in B6C3F1 mice. Particulars: endpoint: median survival time, higher = longer survival. An outline of the steps: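 Mice bearing transplanted tumor were dosed with compound or vehicle, and survival was recorded. Activity is expressed as the treated-group measurement (T) divided by the vehicle control measurement (C).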

Setting [1] is: dose: 12.5 mg/kg/injection, schedule: Q01DX009 (ip), vehicle: saline.
The mark [2] stands for this setting: dose: 25.0 mg/kg/injection, schedule: Q01DX009 (ip), vehicle: saline.
The mark [3] stands for this setting: dose: 50.0 mg/kg/injection, schedule: Q01DX009 (ip), vehicle: saline with Tween-80.
The mark [4] stands for this setting: dose: 100.0 mg/kg/injection, schedule: Q01DX009 (ip), vehicle: saline.
Where [5] appears, read: dose: 100.0 mg/kg/injection, schedule: Q01DX009 (ip), vehicle: Klucel (hydroxypropylcellulose) (HPC).
Setting [6] is: dose: 200.0 mg/kg/injection, schedule: Q01DX009 (ip), vehicle: Klucel (hydroxypropylcellulose) (HPC).
[7] abbreviates: dose: 400.0 mg/kg/injection, schedule: Q01DX009 (ip), vehicle: Klucel (hydroxypropylcellulose) (HPC).
Where [8] appears, read: dose: 6.25 mg/kg/injection, schedule: Q01DX009 (ip), vehicle: saline with Tween-80.
Setting [9] is: dose: 12.5 mg/kg/injection, schedule: Q01DX009 (ip), vehicle: saline with Tween-80.
Setting [10] is: dose: 25.0 mg/kg/injection, schedule: Q01DX009 (ip), vehicle: saline with Tween-80.
Setting [11] is: dose: 100.0 mg/kg/injection, schedule: Q01DX009 (ip), vehicle: saline with Tween-80.
The mark [12] stands for this setting: dose: 5.0 mg/kg/injection, schedule: Q01DX009 (ip), vehicle: Klucel (hydroxypropylcellulose) (HPC).
Where [13] appears, read: dose: 10.0 mg/kg/injection, schedule: Q01DX009 (ip), vehicle: Klucel (hydroxypropylcellulose) (HPC).
The mark [14] stands for this setting: dose: 20.0 mg/kg/injection, schedule: Q01DX009 (ip), vehicle: Klucel (hydroxypropylcellulose) (HPC).
Setting [15] is: dose: 40.0 mg/kg/injection, schedule: Q01DX009 (ip), vehicle: Klucel (hydroxypropylcellulose) (HPC).
Setting [16] is: dose: 50.0 mg/kg/injection, schedule: Q01DX009 (ip), vehicle: saline.

On to `CCCCCCCCCCCCCCCC[N+]1(C)CCN(SN2CC[N+](C)(CCCCCCCCCCCCCCCC)CC2)CC1`, for which the T/C is 96 % of control under setting [1], 100 % of control under setting [2] and 89 % of control under setting [3].
Turning to `NC(CCCNc1cccc(O)c1)C(=O)O` (centres undefined), the T/C reads like this: (dose: 75.0 mg/kg/injection, schedule: Q01DX009 (ip), vehicle: saline) 104 % of control; under setting [4], 87 % of control.
For `CC(C)(C)OC(=O)NC(CCCNC(=O)OCc1ccccc1)C(=O)O` (centres undefined), the T/C by setting is: under setting [5], 110 % of control; under setting [6], 104 % of control; under setting [7], 98 % of control.
Take `O=S(=O)(CCl)OCCCl`: the T/C under setting [8] is 97 % of control and 100 % of control; the T/C under setting [9] was 108 % of control and 113 % of control and 103 % of control; the T/C under setting [10] is 114 % of control and 115 % of control and 102 % of control; the T/C under setting [3] is 109 % of control and 100 % of control; the T/C under setting [11] is 110 % of control.
With `CCCCNC(C)C1(O)Cc2c(O)c3c(c(O)c2C(OC2CC(N)C(O)C(C)O2)C1)C(=O)c1c(OC)cccc1C3=O` (centres undefined), the T/C is, setting by setting: (dose: 5.0 mg/kg/injection, schedule: Q01DX009 (ip), vehicle: saline) 120 % of control; (dose: 10.0 mg/kg/injection, schedule: Q01DX009 (ip), vehicle: saline) 174 % of control and 193 % of control; (dose: 20.0 mg/kg/injection, schedule: Q01DX009 (ip), vehicle: saline) 160 % of control and 222 % of control; (dose: 40.0 mg/kg/injection, schedule: Q01DX009 (ip), vehicle: saline) 190 % of control and 333 % of control; (dose: 80.0 mg/kg/injection, schedule: Q01DX009 (ip), vehicle: saline) 232 % of control and 333 % of control.
Regarding `CCOc1ccc2c(c1)/C(=C\C=C\C1CC(C)C3CC(OCC)CCC3N1CC)CC(C)N2CC` (centres undefined), the T/C is, setting by setting: (dose: 1.25 mg/kg/injection, schedule: Q01DX009 (ip), vehicle: saline + alcohol) 97 % of control; (dose: 2.5 mg/kg/injection, schedule: Q01DX009 (ip), vehicle: saline + alcohol) 100 % of control; (dose: 5.0 mg/kg/injection, schedule: Q01DX009 (ip), vehicle: saline + alcohol) 113 % of control.
With `CC[PH+](CC)CC[S-].CC[PH+](CC)CC[S-].[Au+].[Au+]`, the T/C reads like this: under setting [12], 94 % of control; under setting [13], 97 % of control; under setting [14], 97 % of control; under setting [15], 95 % of control.
On to `C/C=C/c1cc2n(c1)C(=O)c1cc(OC3OC(C)C(NC)C(C)(O)C3O)c(C)c(O)c1NC2O` (centres undefined), for which the T/C is, setting by setting: (dose: 0.25 micrograms/kg/injection, schedule: Q01DX009 (ip), vehicle: saline) 106 % of control; (dose: 2.0 micrograms/kg/injection, schedule: Q04DX003 (ip), vehicle: DMSO) 114 % of control.
For `CCCCC(NC(=O)CN)C(=O)O` (centres undefined), the T/C was 103 % of control under setting [5], 107 % of control under setting [6] and 122 % of control under setting [7].
`C/C=C(\C)C(=O)N[C@@H](c1ccccc1)[C@@H](O)C(=O)OC1C[C@@]2(O)[C@@H](OC(=O)c3ccccc3)[C@@H]3[C@]4(OC(C)=O)CO[C@@H]4C[C@H](O)[C@@]3(C)C(=O)[C@H](OC(C)=O)C(=C1C)C2(C)C` (some centres undefined): the T/C by setting is: (dose: 0.5 mg/kg/injection, schedule: Q01DX009 (ip), vehicle: saline + Tween-80 + alcohol) 113 % of control; (dose: 1.0 mg/kg/injection, schedule: Q01DX009 (ip), vehicle: saline + Tween-80 + alcohol) 106 % of control; (dose: 4.0 mg/kg/injection, schedule: Q01DX009 (ip), vehicle: saline + Tween-80 + alcohol) 172 % of control.
With `CCC(=O)[O-].CCC(=O)[O-].CCC(=O)[O-].CCC(=O)[O-].O=S(=O)(O)O.[Re].[Re]`, the T/C was 93 % of control (dose: 64.8 mg/kg/injection, schedule: Q01DX009 (ip), vehicle: suspension in saline); 86 % of control (dose: 108.0 mg/kg/injection, schedule: Q01DX009 (ip), vehicle: suspension in saline); 86 % of control (dose: 300.0 mg/kg/injection, schedule: Q01DX009 (ip), vehicle: suspension in saline).
In the case of `CC(C)CC1C(=O)N2CCCC2C2(O)OC(NC(=O)C3C=C4c5cccc6[nH]cc(c56)CC4N(C)C3)(C(C)C)C(=O)N12` (centres undefined), the T/C was 120 % of control (dose: 2.5 mg/kg/injection, schedule: Q01DX009 (ip), vehicle: Klucel (hydroxypropylcellulose) (HPC)); 111 % of control under setting [12]; 109 % of control under setting [13]; 98 % of control under setting [14]; 105 % of control under setting [15].
On to `COC(=O)[C@@H]1c2cc3c(c(O)c2[C@@H](OC)C[C@@]1(C)O)C(=O)c1c(O)cc2c(c1C3=O)OC1O[C@@]2(C)[C@H](O)[C@@H](N(C)C)[C@@H]1O`, for which the T/C under setting [1] was 158 % of control, the T/C under setting [2] is 159 % of control and the T/C under setting [16] was 158 % of control.
For the compound `CN(C)[C@@H]1C(=O)C(C(N)=O)=C(O)[C@@]2(O)C(=O)C3=C(O)c4c(O)ccc(Cl)c4[C@@](C)(O)[C@H]3C[C@@H]12`, the T/C is 97 % of control under setting [1]; 109 % of control (dose: 12.5 mg/kg/injection, schedule: Q01DX009 (ip), vehicle: water); 97 % of control under setting [2]; 105 % of control (dose: 25.0 mg/kg/injection, schedule: Q01DX009 (ip), vehicle: water); 101 % of control under setting [16]; 104 % of control (dose: 50.0 mg/kg/injection, schedule: Q01DX009 (ip), vehicle: water). Moreover, the T/C was 94 % of control under setting [4]; 100 % of control (dose: 100.0 mg/kg/injection, schedule: Q01DX009 (ip), vehicle: water); 98 % of control (dose: 200.0 mg/kg/injection, schedule: Q01DX009 (ip), vehicle: saline); 106 % of control (dose: 200.0 mg/kg/injection, schedule: Q01DX009 (ip), vehicle: water).
Take `CN(C)P(=O)(Oc1ccccc1)N(C)C`: the T/C is 114 % of control and 98 % of control under setting [9]; 100 % of control and 101 % of control under setting [10]; 98 % of control and 99 % of control under setting [3]; 110 % of control and 99 % of control under setting [11]; 101 % of control and 103 % of control (dose: 200.0 mg/kg/injection, schedule: Q01DX009 (ip), vehicle: saline with Tween-80).
Consider `[Cl][Sn]([c]1ccccc1)[c]1ccccc1`, for which the T/C (dose: 3.12 mg/kg/injection, schedule: Q01DX009 (ip), vehicle: saline) was 116 % of control; the T/C (dose: 3.13 mg/kg/injection, schedule: Q01DX009 (ip), vehicle: saline) was 93 % of control; the T/C (dose: 6.25 mg/kg/injection, schedule: Q01DX009 (ip), vehicle: saline) was 122 % of control and 106 % of control; the T/C under setting [1] was 107 % of control; the T/C under setting [2] is 118 % of control.
With `CC(C)NCC(O)COc1ccc(O)c(O)c1` (centres undefined), the T/C was 100 % of control and 103 % of control under setting [2]; 113 % of control and 106 % of control under setting [16]; 109 % of control and 116 % of control under setting [4].
For `CC(=Nc1ccccc1)C1=C(O)C(Cc2ccccc2)NC1=O` (centres undefined), the T/C is, setting by setting: (dose: 3.13 mg/kg/injection, schedule: Q01DX009 (ip), vehicle: saline with Tween-80) 113 % of control; under setting [8], 121 % of control; under setting [9], 115 % of control and 103 % of control; under setting [10], 119 % of control and 103 % of control; under setting [3], 113 % of control.
Regarding `Cc1c2ccnc(C(N)=O)c2c(C)c2c1[nH]c1ccccc12`, the T/C is 96 % of control (dose: 62.0 mg/kg/injection, schedule: Q04DX003 (ip), vehicle: distilled water + Tween-80); 120 % of control (dose: 125.0 mg/kg/injection, schedule: Q04DX003 (ip), vehicle: distilled water + Tween-80); 117 % of control (dose: 200.0 mg/kg/injection, schedule: Q01DX009 (ip), vehicle: distilled water + Tween-80); 106 % of control (dose: 250.0 mg/kg/injection, schedule: Q04DX003 (ip), vehicle: distilled water + Tween-80); 123 % of control (dose: 400.0 mg/kg/injection, schedule: Q01DX009 (ip), vehicle: distilled water + Tween-80); 100 % of control (dose: 500.0 mg/kg/injection, schedule: Q04DX003 (ip), vehicle: distilled water + Tween-80). In addition, the T/C (dose: 1000.0 mg/kg/injection, schedule: Q04DX003 (ip), vehicle: distilled water + Tween-80) is 124 % of control.
